Measurements taken from ChEMBL document CHEMBL1938273, “Design, synthesis and in vitro evaluation of novel bivalent S-adenosylmethionine analogues” (Bioorg Med Chem Lett, 2012).

Assays:
[1] = biological target: T1, Met repressor (Escherichia coli) (UniProt C3SIU2); test: Binding affinity to Escherichia coli metJ assessed as protein dimer-DNA complex formation using F-metC operator DNA by fluorescence anisotropy relative to 4-((((2R,3S,4R,5R)-5-(6-amino-9H-purin-9-yl)-3,4-dihydroxy-tetrahydrofuran-2-yl)methyl)(methyl)amino)-N-propylbutanamide
T1 sequence (whole entry): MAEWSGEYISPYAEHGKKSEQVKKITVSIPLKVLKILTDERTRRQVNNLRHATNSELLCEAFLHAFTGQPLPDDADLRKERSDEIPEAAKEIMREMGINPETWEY

[2] = biological target: T1, Met repressor (Escherichia coli); test: Binding affinity to Escherichia coli metJ assessed as protein dimer-DNA complex formation using F-metC operator DNA by fluorescence anisotropy relative to 5'-[{(3''S)-4''-Benzylamino-3''-amino-4''-oxobutyl}dimethylamino]-5'-deoxyadenosine iodide ditrifluoroacetic acid salt
[3] = biological target: T2, Met repressor (Escherichia coli, UniProt C3SIU2); test: Binding affinity to Escherichia coli metJ in presence of operator DNA complex by filter binding study
T2 sequence (C3SIU2 whole entry): T1 sequence (whole entry)

Compound	fold change (FC) [1]	fold change (FC) [2]	further results
CN(CCCC(=O)NCCCCCCNC(=O)CCCN(C)C[C@H]1O[C@@H](n2cnc3c(N)ncnc32)[C@H](O)[C@@H]1O)C[C@H]1O[C@@H](n2cnc3c(N)ncnc32)[C@H](O)[C@@H]1O	21		
CN(CCCC(=O)NCCCCn1nnc2c1CCCCCC2OCCNC(=O)CCCN(C)C[C@H]1O[C@@H](n2cnc3c(N)ncnc32)[C@H](O)[C@@H]1O)C[C@H]1O[C@@H](n2cnc3c(N)ncnc32)[C@H](O)[C@@H]1O (stereo partly specified)	13		
CN(CCCC(=O)NCCOC1CCCCCc2c1nnn2CCNC(=O)CCCN(C)C[C@H]1O[C@@H](n2cnc3c(N)ncnc32)[C@H](O)[C@@H]1O)C[C@H]1O[C@@H](n2cnc3c(N)ncnc32)[C@H](O)[C@@H]1O (mixture of isomers)	9.1		
C[S+](CC[C@H](N)C(=O)[O-])C[C@H]1O[C@@H](n2cnc3c(N)ncnc32)[C@H](O)[C@@H]1O (stereo partly specified) [ADEMETIONINE]			Kd [3]: 4 nM

Second part, led by results:

fold change (FC) [1]	fold change (FC) [2]	Compound	further results
	2.4	C[N+](C)(CC[C@H](N)C(=O)NCc1ccc(CNC(=O)[C@@H](N)CC[N+](C)(C)C[C@H]2O[C@@H](n3cnc4c(N)ncnc43)[C@H](O)[C@@H]2O)cc1)C[C@H]1O[C@@H](n2cnc3c(N)ncnc32)[C@H](O)[C@@H]1O (mixture of isomers)	
	3.6	C[N+](C)(CC[C@H](N)C(=O)NCc1cccc(CNC(=O)[C@@H](N)CC[N+](C)(C)C[C@H]2O[C@@H](n3cnc4c(N)ncnc43)[C@H](O)[C@@H]2O)c1)C[C@H]1O[C@@H](n2cnc3c(N)ncnc32)[C@H](O)[C@@H]1O (mixture of isomers)	
